Reference: US11602147B2, “Nematode control” (University of Idaho, priority 2017, dated 2023)

Key:
[1] = pH stability of 4-hydroxybenzyl isothiocyanate in buffered aqueous solutions; format: physicochemical
Experimental: Partially purified 4-hydroxybenzyl isothiocyanate was prepared by suspending 500 grams of S. alba seed meal in 2 liters of deionized water and extracting the mixture with 500 milliliters of ethyl acetate for 24 hours. The ethyl acetate extract was separated by decanting the top organic layer after centrifugation, dried with 100 g of anhydrous sodium sulfate overnight, and concentrated under vacuum at laboratory temperature. The crude 4-hydroxybenzyl isothiocyanate extract was further purified by preparative column chromatography on silica gel (500 grams). […] Content of 4-hydroxybenzyl isothiocyanate within the fractions was verified by GC-MS using instrumentation and conditions as described previously. Fractions containing 4-hydroxybenzyl isothiocyanate were combined and concentrated under vacuum at laboratory temperature producing a yellowish, viscous fluid displaying only 4-hydroxybenzyl isothiocyanate and pentane/methylene chloride solvent peaks in the GC chromatogram. No further concentration of 4-hydroxybenzyl isothiocyanate was achieved using vacuum distillation because of its instability.
Actual pH values of the buffers of 3.03, 3.52, 4.02, 4.49, 5.00, 5.46, 5.91, and 6.52 were verified using an Orion model 420A pH meter (Orion Research, Boston). […]

[2] = system: Globodera pallida eggs; assay: Globodera pallida egg hatching assay after 2-week exposure of encysted eggs; format: in vivo
Experimental: An initial experiment was conducted to determine possible effects of S. alba seed meal on hatch of Globodera pallida eggs. Measuring the percentage egg hatch is a viability indicator and provides an indication of the potential impact from a treatment. In this experiment, Globodera pallida encysted eggs were exposed to S. alba seed meal for 2 weeks in small containers containing a sand:soil mix. The sand:soil mix without seed meal was used as the non-treated control. […] The experiment had two treatments: 1) a non-treated bare soil control; or 2) S. alba seed meal. Each treatment included 5 replicates. Eggs from each of these treatments were exposed to either PRD or SE for 2 weeks, at which time hatched infectious 2nd stage Globodera pallida juveniles (J2) were counted. The objective of this experiment was to determine if 4-hydroxybenzyl alcohol (HBA), the product of enzymatic hydrolysis of the glucosinolate sinalbin contained in S. alba seed meal, could be responsible for the observed enhanced hatch. In an experiment similar to Example 1, encysted eggs were exposed to either HBA, or S. alba seed (yellow mustard) meal. The non-treated eggs were placed in bare soil mix only. After 2 weeks, exposed eggs were placed in hatching assays in either PRD or in soil extract, and hatched J2 were counted. In this experiment, the impact of different application rates of HBA on percent Globodera pallida hatch was investigated (FIG. 13). Again, hatch of the non-treated control was higher in PRD than in soil extract. […] An increase in hatch of approximately 60% occurred with a 1 μmol/ml pre-treatment with HBA prior to PRD exposure.

[3] = system: vegetative cover / weeds; settings: cited from earlier work
[4] = system: cotton; settings: solutions sprayed directly on vegetative growth; cited from earlier work
[5] = system: wheat; settings: effect no longer observed at 69 days post application; cited from earlier work

Oc1ccc(CN=C=S)cc1 [4-hydroxybenzyl isothiocyanate]
half-life at 0.1 % v/v (partially purified extract in buffer) ([1]; 0.1 M sodium citrate/citric acid buffer (aqueous), pH 7.0 (overview text)): < 5 min
stability in aqueous media ([1]; aqueous media): unstable

OCc1ccc(O)cc1 [HBA, 4-hydroxybenzyl alcohol]
increase in hatch ([2]; 1 μmol/ml pre-treatment with HBA prior to PRD exposure): approximately 60%
hatch enhancement, comparison of application rates ([2]; 1 μmol/ml versus 2, 4, 8 μmol/ml): enhanced hatch of Globodera pallida more effectively than higher rates tested
increase in Globodera pallida egg hatch compared to non-treated control ([2]; 2-week exposure in soil mix, then hatched in potato root diffusate (PRD)): 50%

N#CS [SCN^−, ionic thiocyanate]
rate necessary for complete plant kill ([3]; for 4 months): 1,366 kg SCN^−/ha
rate removing a large percentage of the weeds ([3]; in vivo): 137 kilograms SCN^−/ha
rate at which cotton defoliation was possible [4]: 8.6 kilograms SCN^−/ha
application rate causing inhibition of wheat germination [5]: 342 kilograms SCN^−/ha
